Measured values published in ChEMBL document CHEMBL1201862, “PubChem BioAssay data set” (2004).
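48-hour exposure; five concentrations; linearly interpolated endpoints. GI50 = concentration required for 50% inhibition of growth.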 The source made the active and inactive calls. Cut-off read from the data, not from the text of the source: active = GI50 up to about 1.1 µM and inactive = higher.

Columns and labels:
Assay in all cases: growth of human tumour cells (NCI), 48 h
RXF 631 = test system: RXF 631
KM-20L2 = test system: KM-20L2
SNB-78 = test system: SNB-78
DLD-1 = test system: DLD-1
M19-MEL = test system: M19-MEL
DMS-114 = test system: DMS-114
LXFL 529 = test system: LXFL 529
XF498 = test system: XF498
DMS-273 = test system: DMS-273

Row | SMILES | GI50 (RXF 631) | GI50 (KM-20L2) | GI50 (SNB-78) | GI50 (DLD-1) | GI50 (M19-MEL) | GI50 (DMS-114) | GI50 (LXFL 529) | GI50 (XF498) | GI50 (DMS-273)
1 | N=C(N)Nc1nc2cc(N)ccc2o1 | > 100 µM (inactive) | > 100 µM (inactive) | > 100 µM (inactive) | > 100 µM (inactive) | > 100 µM (inactive) |  |  |  | 
2 | CCc1ccccc1NC(=O)C(=O)C(C#N)c1ccccc1Cl (centres undefined) | > 100 µM (inactive) | > 100 µM (inactive) | > 100 µM (inactive) | > 100 µM (inactive) | > 100 µM (inactive) | > 100 µM (inactive) | > 100 µM (inactive) | > 100 µM (inactive) | 
3 | O=C1c2cc(CCl)sc2C(=O)c2ccsc21 |  | 1.45 µM (inactive) | 0.292 µM (active) | 0.933 µM (active) | < 0.01 µM (active) | 0.163 µM (active) | 0.243 µM (active) | 1.73 µM (inactive) | 0.306 µM (active)
4 | O=C1C(Cl)C(c2ccc(Cl)cc2)N1n1cnc2ccccc2c1=O (centres undefined) |  | > 100 µM (inactive) | > 100 µM (inactive) | > 100 µM (inactive) | > 100 µM (inactive) | 42.3 µM (inactive) | 72.4 µM (inactive) | 80.7 µM (inactive) | 30.3 µM (inactive)
5 | CCC1(N=[N+]=[N-])C(=O)Nc2cc(C)ccc2C1=O (centres undefined) |  | > 100 µM (inactive) | 86.1 µM (inactive) | > 100 µM (inactive) | 60.3 µM (inactive) | 38.1 µM (inactive) | 38 µM (inactive) |  | 23 µM (inactive)
6 | CCCN1CN(C(C(=O)N[C@@H]2C(=O)N3C(C(=O)O)=C(C)CSC23)c2ccc(O)cc2)CSC1=S (some centres undefined) |  | > 100 µM (inactive) | > 100 µM (inactive) | > 100 µM (inactive) | > 100 µM (inactive) | 52.4 µM (inactive) | > 100 µM (inactive) | > 100 µM (inactive) | > 100 µM (inactive)
7 | CN1CCN(C)C1c1cccc(C2N(C)CCN2C)c1 | > 100 µM (inactive) | > 100 µM (inactive) | > 100 µM (inactive) | > 100 µM (inactive) | > 100 µM (inactive) | > 100 µM (inactive) | > 100 µM (inactive) |  | > 100 µM (inactive)
8 | C#CC1(O)CCC2[C@@H]3CCc4cc(Oc5nc(F)nc(-c6c7ccccc7cn6C)n5)ccc4C3CC[C@@]21C (some centres undefined) |  | > 100 µM (inactive) | > 100 µM (inactive) | > 48.2 µM (inactive) | > 100 µM (inactive) | 35.8 µM (inactive) | > 100 µM (inactive) | > 100 µM (inactive) | > 66.1 µM (inactive)
9 | COc1ccc2nc(NC(=O)C(=O)C(C#N)c3ccc(CC#N)cc3)sc2c1 (centres undefined) |  | > 100 µM (inactive) | > 100 µM (inactive) | > 100 µM (inactive) | > 100 µM (inactive) |  | > 100 µM (inactive) |  | > 100 µM (inactive)
10 | O=S1(=O)OCCOS(=O)(=O)C1(I)I |  |  | 23.2 µM (inactive) | 16.9 µM (inactive) | 17.7 µM (inactive) | 18 µM (inactive) | 11 µM (inactive) | 18 µM (inactive) | 20.6 µM (inactive)
11 | CS(=O)(=O)OCCN(CCOS(C)(=O)=O)c1ccc(/C=N/N=c2/nc[nH]c3nc[nH]c23)cc1 |  | 21.5 µM (inactive) | 24.2 µM (inactive) | 26.8 µM (inactive) | 20.5 µM (inactive) | 10.9 µM (inactive) |  | 21.2 µM (inactive) | 14.9 µM (inactive)
12 | CNC(=O)NCCCCC(NC(=O)OCc1ccccc1)C(=O)OCc1ccccc1 (centres undefined) | 23.6 µM (inactive) | > 100 µM (inactive) | 25.4 µM (inactive) | 38.2 µM (inactive) | 21.8 µM (inactive) | 23.6 µM (inactive) | 32.1 µM (inactive) | 18.3 µM (inactive) | 48.8 µM (inactive)
13 | COc1cccc2c1[C@]1(O)C(O)CCCC21 (some centres undefined) |  | > 100 µM (inactive) | > 100 µM (inactive) | > 100 µM (inactive) | > 100 µM (inactive) | > 100 µM (inactive) | > 100 µM (inactive) |  | > 100 µM (inactive)
14 | CC(C)(C)S(=O)OC12CC3CC(CC(C3)C1)C2 (centres undefined) |  | > 100 µM (inactive) | > 100 µM (inactive) |  | > 100 µM (inactive) | > 100 µM (inactive) | > 100 µM (inactive) | > 100 µM (inactive) | > 100 µM (inactive)
15 | NC1=Nc2ccccc2Sc2ccccc21 |  | > 100 µM (inactive) | > 100 µM (inactive) | > 100 µM (inactive) | > 100 µM (inactive) | > 100 µM (inactive) |  | 52.1 µM (inactive) | > 100 µM (inactive)
16 | S=C1NC(c2ccccc2)=NC(Cc2ccccc2)(c2ccccc2)N1c1ccccc1 (centres undefined) | > 100 µM (inactive) | > 100 µM (inactive) | > 100 µM (inactive) | > 100 µM (inactive) | > 100 µM (inactive) | > 100 µM (inactive) | > 100 µM (inactive) |  | 
17 | O=C(C#Cc1ccccc1)NC/C=C/c1ccccc1 |  | 44.9 µM (inactive) | 29.9 µM (inactive) | 43.1 µM (inactive) | 60.1 µM (inactive) | 46.6 µM (inactive) | 38.2 µM (inactive) |  | 
18 | COc1c(CC(=O)c2ccccc2)c2ccccc2n1C(C)=O | > 100 µM (inactive) | > 100 µM (inactive) | > 100 µM (inactive) | > 100 µM (inactive) | > 100 µM (inactive) | > 100 µM (inactive) | > 100 µM (inactive) | > 100 µM (inactive) | > 100 µM (inactive)
19 | CCCCCCCCCCCCCP(=O)(O)NCC(N)=O | 84.3 µM (inactive) | 98.6 µM (inactive) |  | 43.9 µM (inactive) | 80.7 µM (inactive) | 32.2 µM (inactive) | 54.3 µM (inactive) | 64.6 µM (inactive) | 
20 | O=C(CCc1nnc2s/c(=C\c3ccc4c(c3)OCO4)c(=O)n12)Nc1cc(Cl)ccc1Cl | > 100 µM (inactive) | > 100 µM (inactive) | > 100 µM (inactive) | > 100 µM (inactive) | > 100 µM (inactive) | > 100 µM (inactive) | > 100 µM (inactive) | > 100 µM (inactive) | > 55.1 µM (inactive)
21 | CN(C)c1ccc(/C=C(\NC(=O)c2ccccc2)c2nc3cncnc3[nH]2)cc1 | > 100 µM (inactive) | > 100 µM (inactive) | > 100 µM (inactive) | > 100 µM (inactive) | > 100 µM (inactive) | > 100 µM (inactive) | > 100 µM (inactive) | > 100 µM (inactive) | 
22 | CC(C)(C)c1cc(C(O)(C(F)(F)F)C(F)(F)F)c2c(c1)C(C(F)(F)F)(C(F)(F)F)OC(c1ccccc1)(C(C)(C)C)N2 (centres undefined) |  | 4.92 µM (inactive) | 8.28 µM (inactive) | 3.76 µM (inactive) | 3.56 µM (inactive) | 2.82 µM (inactive) | 3.28 µM (inactive) | 3.6 µM (inactive) | 3.61 µM (inactive)
23 | CNC(=O)C(C)Oc1ccc(OCC2CCCCC2)cc1 (centres undefined) |  |  | > 100 µM (inactive) | > 100 µM (inactive) | > 100 µM (inactive) | 59.7 µM (inactive) | 77.4 µM (inactive) |  | > 100 µM (inactive)
24 | Nc1nc[n+](Cc2ccccc2CCO)c2[nH]cnc12 | > 100 µM (inactive) | > 100 µM (inactive) |  |  | > 100 µM (inactive) | > 100 µM (inactive) | > 100 µM (inactive) | > 100 µM (inactive) | > 100 µM (inactive)
25 | COc1ccc(/C(=N/Nc2ccccc2)C(c2ccc(OC)cc2)C2OC(=O)c3ccccc32)cc1 (centres undefined) | > 100 µM (inactive) | 36.6 µM (inactive) |  | > 10 µM (inactive) |  | 50 µM (inactive) |  | > 100 µM (inactive) | > 100 µM (inactive)
26 | CN1N=CSC12C(=O)N(c1ccc(Cl)cc1)C(=O)N2c1ccc(Cl)cc1 (centres undefined) |  | 3.21 µM (inactive) | 3.98 µM (inactive) | 4.06 µM (inactive) | 3.37 µM (inactive) | 1.87 µM (inactive) | 3.34 µM (inactive) |  | 
27 | O=C1N(Cl)C(=O)C(c2ccc(Cl)cc2)(c2ccc(Cl)cc2)N1Cl |  | > 100 µM (inactive) |  | 62.2 µM (inactive) | 39.7 µM (inactive) | 39.9 µM (inactive) | 63 µM (inactive) | > 100 µM (inactive) | > 100 µM (inactive)
28 | CCOC(=O)c1cc(OC(=O)CC)c2c(OC)ccc(OC)c2c1 |  | > 10 µM (inactive) |  | > 100 µM (inactive) | 67.6 µM (inactive) | 45 µM (inactive) | 37.8 µM (inactive) | > 100 µM (inactive) | 35.5 µM (inactive)
29 | CCOc1ccc(NC(=O)C(=O)C(C(=O)c2ccc3ccccc3c2)C2OC(=O)c3ccccc32)cc1 (centres undefined) |  | 37.6 µM (inactive) | 4.91 µM (inactive) | 7.87 µM (inactive) | 13.4 µM (inactive) | 14.8 µM (inactive) | 6.9 µM (inactive) | 13.8 µM (inactive) | 7.35 µM (inactive)
30 | COC1C(O)CC(OC2CC(OC3CC(O[C@@H]4C(=O)c5c(cc6cc(OC7CC(OC8CC(O)C(O)C(C)O8)C(O)C(C)O7)c(C)c(O)c6c5O)C[C@H]4[C@H](OC)C(=O)[C@@H](O)[C@@H](C)O)OC(C)C3O)OC(C)C2O)OC1C (some centres undefined) |  | 0.0223 µM (active) | < 0.01 µM (active) | 0.177 µM (active) | 0.0109 µM (active) | 0.0272 µM (active) | 0.0129 µM (active) | < 0.01 µM (active) | < 0.0168 µM (active)
